Our source for the IC50 values is paper PMC7178340 (ACS Omega, 2020).

This assay concerns VEGFR. Description: Cell-based competitive binding assay on U87MG cells. On the set-up: species or system human. The conditions noted are these: read-out: IC50, competitive binding, competition against [^64Cu]VEGF125–136 (74 kBq/1 mL), competitor 0-10 000 nmol/L, 37 °C, 1 h, γ counter, triplicate.

In the case of QKRKRKKSRYKS [VEGF125–136], the IC50 turned out to be 277 ± 6.19 nM.
